In patent publication US20070238617A1, “Diamino-1,3,5-triazines N-substituted with bicyclic radicals, process for their preparation, compositions thereof, and their use as herbicides and plant growth regulators” (Bayer CropScience AG, priority 2006, published 2007):

Key:
[1] = tested on: harmful plants such as Stellaria media, Lolium multiforum, Amaranthus retroflexus, Sinapis alba, Avena sativa and Setaria viridis; assay: Pre-emergence effect on weeds (greenhouse pot test); format: in vivo; conditions: application rate of 0.5 kg or less of active ingredient per hectare; applied to soil cover; scored visually after 3 to 4 weeks vs untreated controls
Source text: Seeds or rhizome pieces of monocotyledonous and dicotyledonous weed plants were placed in sandy loam in plastic pots and covered with soil. The compounds according to the invention, which were formulated in the form of wettable powders or emulsion concentrates, were then applied to the surface of the soil cover as aqueous suspension or emulsion at various dosages with an application rate of 600 to 800 l of water per ha (converted).

[2] = tested on: harmful plants such as Sinapis alba, Echinochloa crus-galli, Lolium multiflorum, Stellaria media, Cyperus iria, Amaranthus retroflexus, Setaria viridis, Avena …; assay: Post-emergence effect on weeds (greenhouse pot test); format: in vivo; conditions: application rate of 2 kg or less of active ingredient per hectare; sprayed in the three-leaf stage; scored visually after approx. 3 to 4 weeks vs untreated controls
Procedure: Seeds or rhizome pieces of monocotyledonous and dicotyledonous weeds were placed in sandy loam in plastic pots, covered with soil and grown in the greenhouse under good growth conditions. Three weeks after sowing, the test plants were treated in the three-leaf stage. Various dosages of the compounds according to the invention, which were formulated as wettable powders or emulsion concentrates, were sprayed to the green plant parts at an application rate of 600 to 800 l of water per ha (converted). After the test plants have been left to stand in the greenhouse for approx. 3 to 4 weeks under optimal growth conditions, the effect of the preparations was scored visually by comparison with untreated controls. Compound nos.

[3] = tested on: plantation crops such as oil palm, coconut palm, India-rubber tree, citrus, pineapples, cotton, coffee, cocoa and vines; assay: Weed control in plantation crops (field trials, crop tolerance); format: in vivo; conditions: natural weed infestation, various dosages, even at high rates of active substance
Procedure: In further field trials plantation crops were grown under conditions of natural weed infestation and sprayed with various dosages of the substances of formula (I) according to the invention.

Row | SMILES | pre-emergence control of harmful plants [1] | herbicidal post-emergence activity against harmful plants [2] | damage to plantation crops (visual assessment) [3] | melting point
1 | Cc1cc(C)c2c(c1)[C@H](Nc1nc(N)nc(C(F)F)n1)CCC2 [Compound 2.5] | very good pre-emergence control | very good herbicidal post-emergence activity | unharmed | 
2 | CC(=O)Nc1nc(N[C@H]2c3cc(C)ccc3C[C@@H]2C)nc(C(F)F)n1 [Compound 3.106] | very good pre-emergence control | very good herbicidal post-emergence activity | unharmed | 
3 | CCC(=O)Nc1nc(N[C@H]2c3cc(C)ccc3C[C@@H]2C)nc(C(F)F)n1 [Compound 3.109, N-(4-(difluoromethyl)-6-{[(1R,2S)-2,6-dimethyl-2,3-dihydro-1H-inden-1-yl]-amino}-1,3,5-triazin-2-yl)propanamide] | very good pre-emergence control | very good herbicidal post-emergence activity | unharmed | 
4 | Cc1ccc2c(c1)[C@H](Nc1nc(N)nc(C(F)F)n1)CCC2 [Compound 2.2] | very good pre-emergence control | very good herbicidal post-emergence activity | unharmed | 
5 | C[C@H]1Cc2ccc(Br)cc2[C@@H]1Nc1nc(N)nc(C(F)F)n1 [Compound 3.82] | very good pre-emergence control | very good herbicidal post-emergence activity | unharmed | 
6 | Cc1ccc2c(c1)[C@H](Nc1nc(N)nc(C(F)F)n1)CC2 [Compound 2.1] | very good pre-emergence control | very good herbicidal post-emergence activity | unharmed | 
7 | Cc1cc(C)c2c(c1)C(Nc1nc(N)nc(C(F)F)n1)CCC2 (racemic) [Compound 1.5] | very good pre-emergence control | very good herbicidal post-emergence activity | unharmed | 
8 | Nc1nc(N[C@@H]2CCOc3c(F)cccc32)nc(C(F)F)n1 [Compound 2.206, 6-(Difluoromethyl)-N-[(4R)-8-fluoro-3,4-dihydro-2H-chromen-4-yl]-1,3,5-triazine-2,4-diamine] | very good pre-emergence control | very good herbicidal post-emergence activity | unharmed | 
9 | Cc1ccc2c(c1)[C@H](Nc1nc(N)nc(C(F)F)n1)[C@@H](C)C2 [Compound 3.1, 6-(difluoromethyl)-N-[(1R,2S)-2,6-dimethyl-2,3-dihydro-1H-inden-1-yl]-1,3,5-triazine-2,4-diamine] | very good pre-emergence control | very good herbicidal post-emergence activity | unharmed | 132 to 134 °C
10 | CC[C@H]1Cc2ccc(C)cc2[C@@H]1Nc1nc(N)nc(C(F)F)n1 [Compound 3.31] | very good pre-emergence control | very good herbicidal post-emergence activity | unharmed | 
11 | Cc1ccc2c(c1)[C@H](Nc1nc(NC(=O)C(C)(C)C)nc(C(F)F)n1)[C@@H](C)C2 [Compound 3.112] | very good pre-emergence control | very good herbicidal post-emergence activity | unharmed | 
12 | Cc1cccc2c1OCCC2Nc1nc(N)nc(C(F)F)n1 (racemic) [Compound 1.205] | very good pre-emergence control | very good herbicidal post-emergence activity | unharmed | 
13 | Cc1ccc2c(c1)[C@H](Nc1nc(N)nc(C(F)F)n1)CCO2 [Compound 2.3] | very good pre-emergence control | very good herbicidal post-emergence activity | unharmed | 
14 | Cc1ccc2c(c1)[C@H](Nc1nc(NC=O)nc(C(F)F)n1)[C@@H](C)C2 [Compound 3.118, N-[4-(difluoromethyl)-6-{[(1R,2S)-2,6-dimethyl-2,3-dihydro-1H-inden-1-yl]amino}-1,3,5-triazin-2-yl]-formamide] |  |  |  | 66 °C
